# Test results published in BindingDB's records for patent US20250197403 (Achillion Pharmaceuticals, 2025).
# Target: Complement factor D (Homo sapiens, UniProt P00746)
# Assay: Human Factor D Assay
# Procedure: Human Factor D (purified from human serum, Complement Technology, Inc.) at 80 nM final concentration is incubated with test compound at various concentrations for 5 min at room temperature in 50 mM Tris, 1M NaCl, pH 7.5. A synthetic substrate Z-L-Lys-SBzl and DTNB (Ellman's reagent) are added to final concentrations of 100 μM each. Absorbance at 405 nm (A405) is recorded at 30 second intervals for 30 min using a microplate spectrophotometer. IC50 values are calculated by nonlinear regression of complement Factor D reaction rates as a function of test compound concentration.
# Sequence of Complement factor D (P00746 whole entry): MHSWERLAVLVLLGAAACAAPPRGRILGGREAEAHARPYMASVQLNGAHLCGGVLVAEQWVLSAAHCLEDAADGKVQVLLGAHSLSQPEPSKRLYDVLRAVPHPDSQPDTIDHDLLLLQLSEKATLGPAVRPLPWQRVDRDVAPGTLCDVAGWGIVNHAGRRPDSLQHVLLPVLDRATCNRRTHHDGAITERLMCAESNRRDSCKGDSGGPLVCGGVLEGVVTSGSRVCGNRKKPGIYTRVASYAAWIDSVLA
row,SMILES,IC50 [µM]
1,"CC(=O)c1cn(CC(=O)N2C[C@H]3C[C@H]3[C@H]2C(=O)Nc2nc(C(F)(F)F)ccc2C)c2c(C)cc(-c3cnc4cc(C)nn4c3)cc12 [US20250197403, Compound 1]",< 1
2,"CC(=O)c1cn(CC(=O)N2[C@H](C(=O)Nc3nc(Br)ccc3C3CC3)C[C@@]3(C)C[C@@H]23)c2c(C)cc(-c3cnc(C)nc3)cc12 [US20250197403, Compound 9]",< 1
3,"CC(=O)c1cn(CC(=O)N2[C@H](C(=O)Nc3cncc(C(F)(F)F)n3)C[C@@]3(C)C[C@@H]23)c2c(C)cc(-c3cnc4cc(C)nn4c3)cc12 [US20250197403, Compound 48]",< 1
4,"COCc1ccc(Br)nc1NC(=O)[C@@H]1C[C@@]2(C)C[C@H]2N1C(=O)Cn1cc(C(C)=O)c2cc(-c3ccc4nc(C)nn4c3)cc(C)c21 [US20250197403, Compound 62]",< 1
5,"CC(=O)c1cn(CC(=O)N2[C@H](C(=O)Nc3nc(C(F)(F)F)ccc3C)C[C@@]3(C)C[C@@H]23)c2c(C)cc(-c3cnc4sc(C)nc4c3)cc12 [US20250197403, Compound 70]",< 1
6,"CC(=O)c1cn(CC(=O)N2C[C@@](F)(CF)C[C@H]2C(=O)Nc2nc(C(F)(F)F)ccc2Cl)c2c(C)nc(-c3cnc4cc(C)nn4c3)cc12 [US20250197403, Compound 92]",< 1
